Several values for one entry are separate records, joined by “and”; a condition that tells them apart may be missing. Equal entries are not always repeated. Where two headings read alike, the source gives them in different places.
Legend:
[1] = Plasma pharmacokinetics of KBGY constituents in rats after single oral administration of KBGY; type: in vivo, rat
Description: KBGY prepared in water was administered orally to 16 h fasted rats at a dose of 2 g/10 mL/kg (n = 3). […] Plasma was obtained by centrifugation at 1700× g for 15 min at 4 °C and stored at −80 °C until analysis.
For quantification of the dicarboxylic acid, 50 µL of standard solution, 100 µL of acetic acid (2%, v/v), and 650 µL of ethyl acetate were added to 200 µL of plasma samples, followed by mixing and centrifugation (7000× g, 5 min). The supernatants were collected and dried with a centrifugal evaporator and concentration system (CC-105; TOMY SEIKO Co., Tokyo, Japan). The residue was dissolved with 100 µL acetonitrile and 50 µL BF3/butanol solution; the dissolved solution was incubated for 1 h at 60 °C. The reaction was terminated by the addition of 50 µL of water and hexane, 150 µL of a saturated solution of sodium chloride, and 400 µL of hexane. The solution was vortexed for 2 min, and the supernatant was obtained by centrifugation (7000× g, 5 min). Liquid–liquid extraction was repeated twice. The corrected supernatant was dried with the centrifugal evaporator and concentration system. The dried residue was dissolved in 100 µL of acetonitrile containing 1 µg/mL of o-terphenyl (Tokyo Chemical Ind. Co.) as an internal standard (IS). Five microliters of the solution was then injected into the GC/MS system.
For quantification of volatile organic compounds (cinnamaldehyde, methyl cinnamate, 2-methoxycinnamaldehyde, mandelonitrile, salicylaldehyde, eugenol, cinnamyl alcohol, and 3-phenylpropyl acetate), 25 µL of standard solution, 25 µL of 2 µg/mL of 1,4-dibromobenzene (Tokyo Chemical Ind. Co.) as IS, and 500 µL of acetonitrile were added to 200 µL of plasma samples, followed by mixing and centrifugation (7000× g, 5 min). Five microliters of the supernatant was then injected into the GC/MS system.
For quantification of other compounds, 25 µL of standard solution, 25 µL of 2 ng/mL of atropine sulfate monohydrate (Wako Pure Chemical Ind.) or niflumic acid (Sigma-Aldrich) as IS, and 750 µL of methanol were added to 200 µL of plasma samples, followed by mixing and centrifugation (7000× g, 5 min). The supernatant was obtained and dried with the centrifugal evaporator and concentration system after 150 µL of propylene glycol (1%, v/v) was added to the supernatant. The dried residue was then dissolved in 60 μL of the HPLC mobile phase for each analytical method, and a 10 or 20 μL portion was injected into the LC/MS/MS system.
Plasma pharmacokinetic data were analyzed by noncompartmental modeling using Phoenix WinNonlin (version 6.3, Certara L.P., St. Louis, MO, USA) to determine various pharmacokinetic constants, including the maximum concentration (Cmax), time to maximum concentration (tmax), apparent elimination half-life (t1/2), and area under the plasma concentration-time curve from zero to last observation time (AUC0–last). The t1/2 was divided by loge^2/ke, where ke was the terminal elimination (at least three data points on the descending linear limb) rate constant.

[2] = Lipid hydroperoxide (LPO) generation assay (linoleic acid, Fenton reaction); type: biochemical
Description: Antioxidant assays using linoleic acid with a purity of 98.0% (Wako Pure Chemical Ind.) were performed using a described protocol with modifications. Briefly, 20 μL of 1% linoleic acid in methanol, 20 μL of 20 mmol/L ferrous chloride in water, 20 μL of test sample in DMSO, and 150 μL of a mixed solution (1:1) of methanol and 20 mmol/L phosphate buffer (pH 7.0) were added to 96-well polypropylene plates. After incubation at room temperature in the dark for 1 h, 10 μL of the reaction products were transferred to 200 μL of a methanol solution containing 39 mmol/L ammonium thiocyanate, 0.2 mmol/L ferrous chloride, and 0.01 mol/L hydrochloride. After incubation for 15 min, absorbance at 500 nm was measured using a microplate reader (Multiskan GO, Thermo Fisher Scientific Inc., Waltham, MA, USA). The concentration of lipid hydroperoxide (LPO) products was calculated conveniently using standard curves of serially-diluted linolein hydroperoxides (Cayman Chemical). The percentage of control was calculated using the following formula; (A − B)/(C − B) × 100, with A = test sample, B = linoleic acid alone, and C = vehicle control. Ascorbic acid was used as a reference agent.

[3] = ROS scavenging assay (hydrogen peroxide-dependent oxidation); type: biochemical; details: for Antioxidant Activity (% of Control) ROS Scavenge: C.I. = complete inhibition
Description: Hydrogen peroxide-dependent oxidation tests were performed using Oxiselect™ In Vitro ROS/RNS Assay kits (Cellbiolab Inc., San Diego, CA, USA) according to the manufacturer’s protocol. Briefly, a test sample was mixed with hydrogen peroxide (final concentration: 2.5 μmol/L) and incubated for 5 min. A fluorescent reaction was started by the addition of a fluorescent probe (dichrolodihydrofluorescin-DiOxyQ) at room temperature. After incubation for 15 min, relative fluorescent units (RFUs) were measured at […] using a fluorescent plate reader (Infinite M200; Tecan Trading AG, Männedorf, Switzerland). The percentage of control was calculated using the following formula; (A − B)/(C − B) × 100, with A = test sample, B = fluorescent probe alone, and C = vehicle control. (+)-Ascorbic acid was used as a reference agent.

[4] = 10 μmol/L, more than 100% = no activity
[5] = rat plasma, single oral KBGY 2 g/kg
[6] = in vivo, rat plasma, single oral KBGY 2 g/kg, read-out: AUC0–last
[7] = in vivo, rat plasma, single oral KBGY 2 g/kg, read-out: Cmax
[8] = in vivo, rat plasma, single oral KBGY 2 g/kg, read-out: tmax

Structure (SMILES): COc1cc(C[C@H]2CO[C@H](c3ccc(O)c(OC)c3)[C@H]2CO)ccc1O [Lariciresinol]
- AUC(0-t) ([1]; rat, in vivo, po, 2 g/kg): 9.84 ng·h/mL
- Cmax ([1]; rat, in vivo, po, 2 g/kg): 1.68 ng/mL and 5 nM
- Tmax ([1]; rat, in vivo, po, 2 g/kg): 4 h
- Antioxidant Activity (% of Control) LPO Generation ([2]; 1 μmol/L): 98.3 ± 1.4 % of Control
- Antioxidant Activity (% of Control) LPO Generation [2, 4]: 79.5 ± 1.9 % of Control
- Antioxidant Activity (% of Control) LPO Generation ([2]; 10 μmol/L, more than 100% = no activity, listed as lariciresinol): less than 80 % of Control
- Antioxidant Activity (% of Control) ROS Scavenge ([3]; 1 μmol/L): C.I.
- anti-ROS activity ([3]; 10 μmol/L): strong anti-ROS activity
- Antioxidant Activity (% of Control) ROS Scavenge [3, 4]: C.I.
- IC50 ([3]; concentration-dependency, Figure 4): 0.561 µM

Structure (SMILES): COc1cc([C@@H]2c3c(cc(OC)c(O)c3OC)C[C@H](CO)[C@H]2CO)cc(OC)c1O [Lyoniresinol]
- AUC0–last [1, 5]: 0.3 ng·h/mL
- Tmax [1, 5]: 1 h
- t1/2 [1, 5]: 11.4 h
- Antioxidant Activity (% of Control) LPO Generation ([2]; 1 μmol/L): 96.8 ± 2.9 % of Control
- Antioxidant Activity (% of Control) LPO Generation [2, 4]: 57.4 ± 1.6 % of Control
- Antioxidant Activity (% of Control) LPO Generation ([2]; 10 μmol/L, more than 100% = no activity, listed as lyoniresinol): less than 80 % of Control
- Antioxidant Activity (% of Control) ROS Scavenge ([3]; 1 μmol/L): 89.3 ± 2.0 % of Control
- anti-ROS activity ([3]; 10 μmol/L): strong anti-ROS activity
- Antioxidant Activity (% of Control) ROS Scavenge [3, 4]: C.I.

Structure (SMILES): N#CC(O)c1ccccc1 (stereo not drawn) [Mandelonitrile]
- AUC(0-t) [1, 6]: 251 ng·h/mL
- Cmax [1, 7]: 165 ng/mL and 1.24 µM
- Tmax [1, 8]: 1 h
- Antioxidant Activity (% of Control) LPO Generation [2, 4]: 104.6 ± 1.2 % of Control
- Antioxidant Activity (% of Control) ROS Scavenge [3, 4]: 99.7 ± 0.6 % of Control

Structure (SMILES): C[C@@]12C[C@@]3(O)O[C@@H](O1)[C@]1(COC(=O)c4ccccc4)[C@H]3C[C@@]12O[C@@H]1O[C@H](CO)[C@@H](O)[C@H](O)[C@H]1O [Paeoniflorin]
- Tmax [1, 5]: 0.5 h
- AUC(0-t) ([1]; rat, in vivo, po, 2 g/kg): 299 ng·h/mL
- Cmax ([1]; rat, in vivo, po, 2 g/kg): 80.2 ng/mL and 167 nM
- half-life ([1]; rat, in vivo, po, 2 g/kg): 2.72 h
- Antioxidant Activity (% of Control) LPO Generation [2, 4]: 92.7 ± 0.9 % of Control
- Antioxidant Activity (% of Control) ROS Scavenge [3, 4]: 100.2 ± 1.4 % of Control

Structure (SMILES): N#C[C@H](O[C@@H]1O[C@H](CO)[C@@H](O)[C@H](O)[C@H]1O)c1ccccc1 [Prunasin]
- AUC(0-t) [1, 6]: 3700 ng·h/mL
- Cmax [1, 7]: 1450 ng/mL and 4.91 µM
- half-life ([1]; in vivo, rat plasma, single oral KBGY 2 g/kg, read-out: t1/2 (converted)): 1.16 h
- Tmax [1, 8]: 1 h
- Antioxidant Activity (% of Control) LPO Generation [2, 4]: 97.9 ± 3.3 % of Control
- Antioxidant Activity (% of Control) ROS Scavenge [3, 4]: 102.2 ± 1.1 % of Control

Structure (SMILES): C=C(CC[C@@H](C(=O)O)[C@H]1[C@H](O)C[C@@]2(C)C3=C(CC[C@]12C)[C@@]1(C)CC[C@H](O)C(C)(C)[C@@H]1CC3)C(C)C [Tumulosic acid]
- AUC(0-t) ([1]; rat, in vivo, po, 2 g/kg): 700 ng·h/mL
- Cmax ([1]; rat, in vivo, po, 2 g/kg): 200 ng/mL and 411 nM
- Tmax ([1]; rat, in vivo, po, 2 g/kg): 0.5 h
- half-life ([1]; rat, in vivo, po, 2 g/kg): 4.66 h
- Antioxidant Activity (% of Control) LPO Generation [2, 4]: 99.4 ± 2.3 % of Control
- Antioxidant Activity (% of Control) ROS Scavenge [3, 4]: 105.9 ± 2.1 % of Control

From article PMC6155852, “Oral Administration of the Japanese Traditional Medicine Keishibukuryogan-ka-yokuinin Decreases Reactive Oxygen Metabolites in Rat Plasma: Identification of Chemical Constituents Contributing to Antioxidant Activity” (Molecules : A Journal of Synthetic Chemistry and Natural …, 2017)
